In the NIST ThermoML archive (doi:10.1021/je8007759):
Numbers after ± are expanded uncertainties.

Assay: xn = mol fraction of the nth substance listed

CC1CCC(=O)O1 (stereo not given) [γ-valerolactone] + O=C=O
mass density [kg/m3], Fluid (supercritical or subcritical phases), Pycnometric method
Conditions | 322.9 K | 327.9 K
9870 kPa, x1 = 0.01 | 521 ± 18 | –
9890 kPa, x1 = 0.01 | 526 ± 15 | –
9920 kPa, x1 = 0.01 | 529 ± 16 | –
9940 kPa, x1 = 0.01 | 532 ± 16 | –
9960 kPa, x1 = 0.01 | 535 ± 16 | –
9980 kPa, x1 = 0.01 | 539 ± 16 | –
10000 kPa, x1 = 0.01 | 540 ± 21 | –
10020 kPa, x1 = 0.01 | 542 ± 15 | –
10050 kPa, x1 = 0.01 | 547 ± 15 | –
10080 kPa, x1 = 0.01 | 550 ± 39 | –
10100 kPa, x1 = 0.01 | 554 ± 17 | –
10110 kPa, x1 = 0.01 | 556 ± 17 | –
10140 kPa, x1 = 0.01 | 559 ± 4 | –
10170 kPa, x1 = 0.01 | 563 ± 9 | –
10200 kPa, x1 = 0.01 | 566 ± 15 | –
10230 kPa, x1 = 0.01 | 576 ± 13 | –
10230 kPa, x1 = 0.025 | 673 ± 8 | –
10240 kPa, x1 = 0.025 | 675 ± 8 | –
10260 kPa, x1 = 0.01 | 574 ± 14 | –
10270 kPa, x1 = 0.025 | 679 ± 14 | –
10290 kPa, x1 = 0.01 | 578 ± 13 | –
10310 kPa, x1 = 0.025 | 683 ± 18 | –
10330 kPa, x1 = 0.01 | 582 ± 10 | –
10370 kPa, x1 = 0.01 | 586 ± 13 | –
10370 kPa, x1 = 0.025 | 687 ± 10 | –
10380 kPa, x1 = 0.15 | 939 ± 4 | –
10400 kPa, x1 = 0.01 | 590 ± 13 | –
10430 kPa, x1 = 0.01 | 594 ± 12 | –
10440 kPa, x1 = 0.025 | 692 ± 11 | –
10470 kPa, x1 = 0.01 | 598 ± 12 | –
10470 kPa, x1 = 0.025 | 696 ± 10 | –
10510 kPa, x1 = 0.05 | 766 ± 9 | –
10520 kPa, x1 = 0.01 | 602 ± 8 | –
10540 kPa, x1 = 0.025 | 701 ± 11 | –
10550 kPa, x1 = 0.05 | 769 ± 9 | –
10570 kPa, x1 = 0.01 | 606 ± 8 | 497 ± 12
10600 kPa, x1 = 0.01 | – | 500 ± 12
10600 kPa, x1 = 0.05 | 771 ± 9 | –
10610 kPa, x1 = 0.025 | 705 ± 11 | –
10620 kPa, x1 = 0.01 | 610 ± 10 | –
10630 kPa, x1 = 0.01 | – | 502 ± 13
10630 kPa, x1 = 0.1 | 881 ± 12 | –
10660 kPa, x1 = 0.01 | – | 505 ± 13
10670 kPa, x1 = 0.025 | 710 ± 10 | –
10680 kPa, x1 = 0.01 | 615 ± 11 | –
10690 kPa, x1 = 0.01 | – | 509 ± 25
10700 kPa, x1 = 0.1 | 882 ± 7 | –
10720 kPa, x1 = 0.01 | 619 ± 10 | 511 ± 25
10720 kPa, x1 = 0.05 | 776 ± 7 | –
10740 kPa, x1 = 0.01 | – | 514 ± 13
10750 kPa, x1 = 0.025 | 714 ± 11 | –
10770 kPa, x1 = 0.01 | – | 517 ± 6
10770 kPa, x1 = 0.1 | 884 ± 5 | –
10780 kPa, x1 = 0.01 | 624 ± 11 | –
10820 kPa, x1 = 0.01 | – | 522 ± 13
10820 kPa, x1 = 0.025 | 718 ± 9 | –
10840 kPa, x1 = 0.01 | 629 ± 12 | –
10840 kPa, x1 = 0.1 | 885 ± 5 | –
10860 kPa, x1 = 0.05 | 781 ± 7 | –
10880 kPa, x1 = 0.01 | – | 529 ± 13
10880 kPa, x1 = 0.15 | 943 ± 4 | –
10900 kPa, x1 = 0.01 | 633 ± 8 | –
10910 kPa, x1 = 0.025 | 723 ± 8 | –
10930 kPa, x1 = 0.01 | – | 535 ± 13
10980 kPa, x1 = 0.01 | 638 ± 9 | –
11000 kPa, x1 = 0.1 | 888 ± 6 | –
11010 kPa, x1 = 0.01 | – | 542 ± 12
11010 kPa, x1 = 0.05 | 787 ± 6 | –
11020 kPa, x1 = 0.025 | 727 ± 11 | –
11040 kPa, x1 = 0.01 | 641 ± 9 | –
11080 kPa, x1 = 0.01 | – | 549 ± 13
11090 kPa, x1 = 0.025 | 732 ± 9 | –
11130 kPa, x1 = 0.01 | – | 554 ± 12
11160 kPa, x1 = 0.01 | 650 ± 11 | –
11180 kPa, x1 = 0.05 | 792 ± 6 | –
11190 kPa, x1 = 0.01 | – | 559 ± 11
11190 kPa, x1 = 0.025 | 737 ± 8 | –
11200 kPa, x1 = 0.15 | 945 ± 4 | –
11230 kPa, x1 = 0.1 | 892 ± 9 | –
11280 kPa, x1 = 0.01 | – | 567 ± 11
11290 kPa, x1 = 0.01 | 657 ± 9 | –
11300 kPa, x1 = 0.025 | – | 661 ± 9
11310 kPa, x1 = 0.025 | 742 ± 6 | –
11360 kPa, x1 = 0.025 | – | 665 ± 9
11380 kPa, x1 = 0.05 | 797 ± 6 | –
11420 kPa, x1 = 0.01 | – | 578 ± 10
11420 kPa, x1 = 0.025 | – | 669 ± 6
11450 kPa, x1 = 0.025 | 747 ± 7 | –
11480 kPa, x1 = 0.025 | – | 673 ± 7
11510 kPa, x1 = 0.01 | 667 ± 8 | 586 ± 10
11520 kPa, x1 = 0.025 | – | 677 ± 7
11540 kPa, x1 = 0.025 | 751 ± 6 | –
11540 kPa, x1 = 0.1 | 897 ± 4 | –
11580 kPa, x1 = 0.05 | 803 ± 6 | –
11590 kPa, x1 = 0.025 | – | 682 ± 6
11600 kPa, x1 = 0.15 | – | 928 ± 4
11630 kPa, x1 = 0.01 | – | 594 ± 9
11660 kPa, x1 = 0.025 | – | 686 ± 8
11700 kPa, x1 = 0.025 | 757 ± 7 | –
11720 kPa, x1 = 0.05 | – | 759 ± 10
11730 kPa, x1 = 0.025 | – | 690 ± 7
11740 kPa, x1 = 0.1 | – | 864 ± 12
11760 kPa, x1 = 0.15 | 950 ± 4 | –
11770 kPa, x1 = 0.1 | – | 865 ± 6
11790 kPa, x1 = 0.01 | – | 606 ± 9
11800 kPa, x1 = 0.01 | 681 ± 7 | –
11800 kPa, x1 = 0.025 | – | 694 ± 8
11800 kPa, x1 = 0.05 | 808 ± 5 | –
11820 kPa, x1 = 0.025 | 763 ± 8 | –
11840 kPa, x1 = 0.05 | – | 763 ± 7
11880 kPa, x1 = 0.1 | – | 867 ± 6
11890 kPa, x1 = 0.025 | – | 698 ± 8
11920 kPa, x1 = 0.01 | – | 615 ± 9
11920 kPa, x1 = 0.15 | – | 931 ± 4
11970 kPa, x1 = 0.025 | 768 ± 6 | –
11970 kPa, x1 = 0.05 | – | 768 ± 6
11980 kPa, x1 = 0.01 | – | 621 ± 9
11990 kPa, x1 = 0.025 | – | 703 ± 7
12010 kPa, x1 = 0.1 | 903 ± 4 | –
12030 kPa, x1 = 0.01 | 691 ± 6 | –
12050 kPa, x1 = 0.1 | – | 871 ± 6
12070 kPa, x1 = 0.01 | – | 628 ± 9
12080 kPa, x1 = 0.05 | 814 ± 5 | –
12110 kPa, x1 = 0.025 | – | 709 ± 10
12130 kPa, x1 = 0.025 | 773 ± 9 | –
12130 kPa, x1 = 0.05 | – | 774 ± 6
12140 kPa, x1 = 0.15 | 952 ± 4 | –
12250 kPa, x1 = 0.15 | – | 934 ± 4
12280 kPa, x1 = 0.025 | – | 716 ± 7
12300 kPa, x1 = 0.01 | – | 639 ± 8
12310 kPa, x1 = 0.05 | – | 779 ± 6
12320 kPa, x1 = 0.05 | 820 ± 5 | –
12330 kPa, x1 = 0.025 | 778 ± 10 | –
12520 kPa, x1 = 0.025 | 784 ± 6 | –
12540 kPa, x1 = 0.1 | 910 ± 4 | –
12620 kPa, x1 = 0.05 | 826 ± 5 | –
12660 kPa, x1 = 0.15 | 956 ± 4 | –
12710 kPa, x1 = 0.025 | 790 ± 5 | –
12920 kPa, x1 = 0.025 | 795 ± 6 | –
12960 kPa, x1 = 0.05 | 832 ± 5 | –
13080 kPa, x1 = 0.1 | 915 ± 4 | –
13150 kPa, x1 = 0.025 | 801 ± 6 | –
13170 kPa, x1 = 0.15 | 959 ± 4 | –
13320 kPa, x1 = 0.05 | 838 ± 5 | –
13390 kPa, x1 = 0.025 | 806 ± 5 | –
13570 kPa, x1 = 0.05 | 843 ± 5 | –
13640 kPa, x1 = 0.025 | 812 ± 5 | –
13720 kPa, x1 = 0.15 | 962 ± 4 | –
13790 kPa, x1 = 0.1 | 923 ± 4 | –
14000 kPa, x1 = 0.05 | 850 ± 5 | –
14100 kPa, x1 = 0.025 | 821 ± 5 | –
14230 kPa, x1 = 0.15 | 965 ± 4 | –
14430 kPa, x1 = 0.05 | 856 ± 5 | –
14490 kPa, x1 = 0.1 | 929 ± 4 | –
14840 kPa, x1 = 0.05 | 862 ± 5 | –
14860 kPa, x1 = 0.15 | 969 ± 4 | –
14880 kPa, x1 = 0.1 | 932 ± 5 | –
15440 kPa, x1 = 0.15 | 972 ± 4 | –
15620 kPa, x1 = 0.05 | 872 ± 5 | –
15960 kPa, x1 = 0.15 | 975 ± 4 | –
16660 kPa, x1 = 0.15 | 979 ± 4 | –
17270 kPa, x1 = 0.15 | 982 ± 4 | –

mass density [kg/m3], 322.9 K, high pressure variable cell
Conditions | x1 = 0.01 | x1 = 0.025 | x1 = 0.05 | x1 = 0.1 | x1 = 0.15
Gas | 514 ± 4 | 672 ± 4 | 763 ± 4 | – | –
Liquid | – | – | – | 877 ± 4 | 936 ± 4
